{
  "source": "patent US9803021B2",
  "about": "(The Regents of the University of California, priority 2012, dated 2017)",
  "key": {"NCI-H929 [1]": {"system": "NCI-H929", "experiment": "Cell cycle analysis (PI DNA content, flow cytometry)", "assay_type": "cell-based, human", "conditions": "NCI-H929, 500 pM, 4 days", "method": "(§1) Cells were incubated with 1 ml of hypotonic DNA staining buffer (1 mg/ml sodium citrate, 100 μg/ml PI, 20 μg/ml RNase A, and 0.3% Triton X-100 in dH2O) for 30-60 min at 4° C. in the dark. Cells were analyzed by flow cytometry and cell cycle analysis performed using FlowJo software with the Watson Model.\n(§2) Cells were incubated with 1 ml of hypotonic DNA staining buffer (1 mg/ml sodium citrate, 100 μg/ml PI, 20 μg/ml RNase A, and 0.3% Triton X-100) for 30-60 minutes at 4° C. in the dark. Cells were analyzed by flow cytometry and cell cycle analysis performed using FlowJo software with the Watson Model."}, "MM1-144 [2]": {"system": "MM1-144", "experiment": "Cell cycle analysis (PI DNA content, flow cytometry)", "assay_type": "cell-based, human", "conditions": "MM1-144, 500 pM, 4 days", "method": "as §1, §2"}, "OCI-My5 [3]": {"system": "OCI-My5", "experiment": "Cell cycle analysis (PI DNA content, flow cytometry)", "assay_type": "cell-based, human", "conditions": "OCI-My5, 500 pM, 4 days", "method": "as §1, §2"}, "ANBL-6 [4]": {"system": "ANBL-6", "experiment": "Cell cycle analysis (PI DNA content, flow cytometry)", "assay_type": "cell-based, human", "conditions": "ANBL-6, 500 pM, 4 days", "method": "as §1, §2"}, "U266 [5]": {"system": "U266", "experiment": "Cell cycle analysis (PI DNA content, flow cytometry)", "assay_type": "cell-based, human", "conditions": "U266, 500 pM, 4 days", "method": "as §1, §2"}, "8226/S": {"system": "8226/S", "experiment": "Apoptosis assay (Annexin V / PI flow cytometry)", "assay_type": "cell-based, human", "method": "(§3) Cells were analyzed by flow cytometry using FlowJo software.\n(§4) Cells were stained with Alexa Fluor 488-labeled Annexin V and propidium iodide (PI) using the Vybrant Apoptosis Kit #2 (Molecular Probes) as per manufacturer's instructions and analyzed by flow cytometry."}, "NCI-H929 [6]": {"system": "NCI-H929", "experiment": "Apoptosis assay (Annexin V / PI flow cytometry)", "assay_type": "cell-based, human", "method": "as §3, §4"}, "MM1-144 [7]": {"system": "MM1-144", "experiment": "Apoptosis assay (Annexin V / PI flow cytometry)", "assay_type": "cell-based, human", "method": "as §3, §4"}, "OCI-My5 [8]": {"system": "OCI-My5", "experiment": "Apoptosis assay (Annexin V / PI flow cytometry)", "assay_type": "cell-based, human", "conditions": "3 days; for induction of apoptosis, result in words: OCI-My5, 500 pM (also 1 nM)", "method": "as §3, §4"}, "ANBL-6 [9]": {"system": "ANBL-6", "experiment": "Apoptosis assay (Annexin V / PI flow cytometry)", "assay_type": "cell-based, human", "method": "as §3, §4"}, "U266 [10]": {"system": "U266", "experiment": "Apoptosis assay (Annexin V / PI flow cytometry)", "assay_type": "cell-based, human", "method": "as §3, §4"}, "ppRb in NCI-H929": {"system": "ppRb in NCI-H929", "experiment": "Western blot of ppRb", "assay_type": "cell-based, human", "conditions": "NCI-H929, 1 nM, 48 hours", "method": "(§5) Cells were lysed using RIPA buffer (50 mM Tris HCl pH 8, 150 mM NaCl, 1% NP-40, 0.5% sodium deoxycholate, 0.1% SDS) containing a protease inhibitor cocktail (Roche Applied Science, Indianapolis, Ind.). The cytosolic fractions were reduced with β-mercaptoethanol and separated by SDS-PAGE. Following transfer to nitrocellulose membrane (Whatman, Piscataway, N.J.) and blocking, samples were incubated with the following primary rabbit antibodies: anti-IRF4 (Epitomics, Berlingham, Calif.), anti-glyceraldehyde-3-phosphate dehydrogenase (GAPDH; Sigma), anti-ppRb Ser807/811 (Santa Cruz Biotechnology, Santa Cruz, Calif.), anti-cyclin D (Millipore, Billerica, Mass.), or anti-β tubulin (Abcam, Cambridge, Mass.). Secondary anti-rabbit IgG-HRP (GE Healthcare, Billerica, Mass.) was used and the blots were developed using enhanced chemiluminescence (ECL; Thermo Scientific, Waltham, Mass.).\n(§6) Cells were lysed using RIPA buffer (50 mM Tris-HCl pH 8, 150 mM NaCl, 1% NP-40, 0.5% sodium deoxycholate, 0.1% SDS) containing a protease inhibitor cocktail (Roche Applied Science). The cytosolic fractions were reduced with β-mercaptoethanol and separated by SDS PAGE. Following transfer to nitrocellulose membrane (Whatman) and blocking, samples were incubated with the following primary rabbit antibodies: anti-IRF-4 (Epitomics), anti-glyceraldehyde-3-phosphate dehydrogenase (GAPDH; Sigma), or anti-ppRb Ser807/811 (Santa Cruz Biotechnology). Secondary anti-rabbit IgG-HRP (GE Healthcare) was used and the blots were developed using enhanced chemiluminescence (ECL; Thermo Scientific). Films were imaged using a Multilmage™ Light Cabinet (Alpha Innotech Corp.) and analyzed using NIH Image J. Bands were normalized to a GAPDH loading control and expressed as percentage band intensity of untreated cells."}, "ppRb in MM1-144": {"system": "ppRb in MM1-144", "experiment": "Western blot of ppRb", "assay_type": "cell-based, human", "conditions": "MM1-144, 1 nM, 48 hours", "method": "as §5, §6"}, "ppRb in OCI-My5": {"system": "ppRb in OCI-My5", "experiment": "Western blot of ppRb", "assay_type": "cell-based, human", "conditions": "OCI-My5, 1 nM, 48 hours", "method": "as §5, §6"}, "OCI-My 5 tumors": {"system": "OCI-My 5 tumors", "experiment": "OCI-My5 xenograft model in SCID mice", "assay_type": "in vivo, mouse", "conditions": "OCI-My5 s.c.", "from_the_text": "Eight mice were included in each group.\nEach group consisted of eight mice."}},
  "note": "“Also recorded” adds a separate entry of the source.",
  "data": [
    {"substance": "anti-CD138-IFNα: Fusion protein: murine B-B4 anti-CD138 variable regions, human IgG1κ constant regions, human IFNα2 fused to the antibody C-terminus via SGGGGS linker", "values": [
      {"measurement": "% G1", "setting": "NCI-H929 [1]", "result": 41.9, "unit": "%"},
      {"measurement": "% G2/M", "setting": "NCI-H929 [1]", "result": 24.3, "unit": "%"},
      {"measurement": "% S", "setting": "NCI-H929 [1]", "result": 21.0, "unit": "%"},
      {"measurement": ">G2", "setting": "NCI-H929 [1]", "result": 8.2, "unit": "%"},
      {"measurement": "Sub G0/G1", "setting": "NCI-H929 [1]", "result": 18.9, "unit": "%"},
      {"measurement": "% G1", "setting": "MM1-144 [2]", "result": 22.6, "unit": "%"},
      {"measurement": "% G2/M", "setting": "MM1-144 [2]", "result": 34.3, "unit": "%"},
      {"measurement": "% S", "setting": "MM1-144 [2]", "result": 29.9, "unit": "%"},
      {"measurement": ">G2", "setting": "MM1-144 [2]", "result": 11.2, "unit": "%"},
      {"measurement": "Sub G0/G1", "setting": "MM1-144 [2]", "result": 11.3, "unit": "%"},
      {"measurement": "% G1", "setting": "OCI-My5 [3]", "result": 25.6, "unit": "%"},
      {"measurement": "% G2/M", "setting": "OCI-My5 [3]", "result": 20.5, "unit": "%"},
      {"measurement": "% S", "setting": "OCI-My5 [3]", "result": 49.0, "unit": "%"},
      {"measurement": ">G2", "setting": "OCI-My5 [3]", "result": 1.5, "unit": "%"},
      {"measurement": "Sub G0/G1", "setting": "OCI-My5 [3]", "result": 17.9, "unit": "%"},
      {"measurement": "changes in cell cycle / DNA content, result in words", "setting": "OCI-My5 [3]", "result": "did not cause apoptosis or blocks to cell cycle progression"},
      {"measurement": "% G1", "setting": "ANBL-6 [4]", "result": 63.6, "unit": "%"},
      {"measurement": "% G2/M", "setting": "ANBL-6 [4]", "result": 18.0, "unit": "%"},
      {"measurement": "% S", "setting": "ANBL-6 [4]", "result": 14.0, "unit": "%"},
      {"measurement": ">G2", "setting": "ANBL-6 [4]", "result": 0.0, "unit": "%"},
      {"measurement": "Sub G0/G1", "setting": "ANBL-6 [4]", "result": 19.6, "unit": "%"},
      {"measurement": "% G1", "setting": "U266 [5]", "result": 53.9, "unit": "%"},
      {"measurement": "% G2/M", "setting": "U266 [5]", "result": 15.1, "unit": "%"},
      {"measurement": "% S", "setting": "U266 [5]", "result": 21.4, "unit": "%"},
      {"measurement": ">G2", "setting": "U266 [5]", "result": 5.5, "unit": "%"},
      {"measurement": "Sub G0/G1", "setting": "U266 [5]", "result": 13.2, "unit": "%"},
      {"measurement": "Mode of Action of anti-CD138-IFNα fusion", "setting": "8226/S", "result": "Apoptosis"},
      {"measurement": "Mode of Action of anti-CD138-IFNα fusion", "setting": "NCI-H929 [6]; H929", "result": "Apoptosis"},
      {"measurement": "induction of apoptosis, result in words", "setting": "NCI-H929 [6]; H929 (NCI-H929), 500 pM, 3 days, listed as anti-CD138-IFNα2", "result": "caused apoptosis"},
      {"measurement": "induction of apoptosis at low concentration, result in words", "setting": "NCI-H929 [6]; NCI-H929, 1 pM, 3 days", "result": "did not cause apoptosis"},
      {"measurement": "induction of apoptosis at low concentration, result in words", "setting": "MM1-144 [7]; MM1-144, 1 pM, 3 days", "result": "did not cause apoptosis"},
      {"measurement": "Mode of Action of anti-CD138-IFNα fusion", "setting": "MM1-144 [7]; MM144", "result": "Apoptosis"},
      {"measurement": "induction of apoptosis, result in words", "setting": "MM1-144 [7]; MM144 (MM1-144), 500 pM, 3 days", "result": "caused apoptosis"},
      {"measurement": "induction of apoptosis at low concentration, result in words", "setting": "OCI-My5 [8]; OCI-My5, 5 pM", "result": "able to induce apoptosis"},
      {"measurement": "induction of apoptosis, result in words", "setting": "OCI-My5 [8]", "result": "did not induce apoptosis; also recorded: did not cause apoptosis or blocks to cell cycle progression"},
      {"measurement": "induction of apoptosis, result in words", "setting": "OCI-My5 [8]; listed as anti-CD138-IFNα2", "result": "caused apoptosis"},
      {"measurement": "Mode of Action of anti-CD138-IFNα fusion", "setting": "ANBL-6 [9]; ANBL-6", "result": "Apoptosis"},
      {"measurement": "induction of apoptosis at low concentration, result in words", "setting": "ANBL-6 [9]; ANBL-6, 1 pM, 3 days", "result": "did not cause apoptosis"},
      {"measurement": "induction of apoptosis, result in words", "setting": "ANBL-6 [9]; ANBL-6, 500 pM, 3 days, listed as anti-CD138-IFNα2", "result": "caused apoptosis"},
      {"measurement": "Mode of Action of anti-CD138-IFNα fusion", "setting": "U266 [10]; U266", "result": "Apoptosis"},
      {"measurement": "induction of apoptosis at low concentration, result in words", "setting": "U266 [10]; U266, 1 pM, 3 days", "result": "able to induce apoptosis"},
      {"measurement": "induction of apoptosis, result in words", "setting": "U266 [10]; U266, 500 pM, 3 days, listed as anti-CD138-IFNα2", "result": "caused apoptosis"},
      {"measurement": "ppRb levels (Western blot)", "setting": "ppRb in NCI-H929", "result": "decreased"},
      {"measurement": "ppRb levels (Western blot)", "setting": "ppRb in MM1-144", "result": "decreased"},
      {"measurement": "ppRb levels (Western blot)", "setting": "ppRb in OCI-My5", "result": "decreased"},
      {"measurement": "survival / protection, result in words", "setting": "OCI-My 5 tumors; 100 μg i.v. on days 14, 16, 18", "result": "significant increase in survival"},
      {"measurement": "survival / protection, result in words", "setting": "OCI-My 5 tumors; 100 μg i.v. on days 14, 16, 18, listed as anti-CD138-IFNα2", "result": "greater protection"}
    ]}
  ]
}
